≈ marks a conversion by molar mass, not a printed value.

In one test the test system is Streptococcus pyogenes. The experiment in a line: In vitro minimum inhibitory concentration (MIC) vs. Strep. pyogenes. The test is classed as cell-based. The note with it: Streptococcus pyogenes, read-out: MIC vs. Strep. pyogenes. The procedure, abridged:
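Broth inoculated with bacteria and test antibiotic, incubated overnight and read visually; MIC is the lowest concentration preventing turbidity. Test preparations also contain some of the corresponding tetrazole tautomer.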
For the compound `CC1(C)S[C@@H]2[C@H](NC(=O)Cc3ccc(OCCN)cc3)C(=O)N2[C@H]1c1nn[nH]n1` [2-(4-[2-aminoethoxy]phenyl)acetyl, 6-(2-[4-(2-Aminoethoxy)phenyl]acetamido)-2,2-dimethyl-3-(5-tetrazolyl)penam], the MIC (usually the smallest concentration in the dilution series that meets the test's criterion for growth inhibition) was below 0.1 µg/mL.
On the same count and under the same terms, the figure for `CNC(=O)NCCC(=O)N[C@@H](C(=O)N[C@@H]1C(=O)N2[C@@H]1SC(C)(C)[C@@H]2c1nnn[nH]1)c1ccccc1` is below 0.1 µg/mL.
`CC1(C)S[C@@H]2[C@H](NC(=O)C(C(=O)O)c3cccs3)C(=O)N2[C@H]1c1nnn[nH]1` (stereo partly shown) [2-carboxy-2-(2-thienyl)acetyl, 6-(2-Carboxy-2-[2-thienyl]acetamido)-2,2-dimethyl-3-(5-tetrazolyl)penam]: the MIC was 0.1 µg/mL (≈ 0.245 µM).
For the compound `CC1(C)S[C@@H]2[C@H](NC(=O)[C@H](NC(=O)CNS(=O)(=O)Cc3ccccc3)c3ccccc3)C(=O)N2[C@H]1c1nn[nH]n1`, the MIC is below 0.1 µg/mL.
For `CC1(C)S[C@@H]2[C@H](NC(=O)[C@H](NC(=O)CNC(=O)NC(=O)c3ccccc3)c3ccccc3)C(=O)N2[C@H]1c1nnn[nH]1`, the MIC is below 0.1 µg/mL.
As for `CC1(C)S[C@@H]2[C@H](NC(=O)[C@H](NC(=O)NC(=O)c3ccccc3)c3ccccc3)C(=O)N2[C@H]1c1nn[nH]n1` [2-(3-benzoylureido)-2-phenylacetyl], the MIC is below 0.1 µg/mL.
For the compound `CCC(=O)NC(=O)N[C@@H](C(=O)N[C@@H]1C(=O)N2[C@@H]1SC(C)(C)[C@@H]2c1nn[nH]n1)c1ccccc1` [2-(3-propionylureido)-2-phenylacetyl], the MIC is below 0.1 µg/mL.
With `CC1(C)S[C@@H]2[C@H](NC(=O)[C@H](NC(=O)CNC(=N)c3cc[n+]([O-])cc3)c3ccccc3)C(=O)N2[C@H]1c1nnn[nH]1`, the MIC is below 0.1 µg/mL.
As to `COc1ccc(NC(=O)N[C@@H](C(=O)N[C@@H]2C(=O)N3[C@@H]2SC(C)(C)[C@@H]3c2nnn[nH]2)c2ccccc2)cc1`, the MIC was below 0.1 µg/mL.
`COc1ccc(C(=O)NCC(=O)N[C@@H](C(=O)N[C@@H]2C(=O)N3[C@@H]2SC(C)(C)[C@@H]3c2nnn[nH]2)c2ccccc2)cc1`: the MIC is 0.1 µg/mL (≈ 0.177 µM).
Take `CC1(C)S[C@@H]2[C@H](NC(=O)C(N)c3cc(O)ccc3Br)C(=O)N2[C@H]1c1nnn[nH]1` (mixture of isomers): the MIC was below 0.1 µg/mL.
`CC1(C)S[C@@H]2[C@H](NC(=O)[C@H](NC(N)=O)c3ccccc3)C(=O)N2[C@H]1c1nn[nH]n1` [D-2-ureido-2-phenylacetyl, 6-(D-2-Ureido-2-phenylacetamido)-2,2-dimethyl-3-(5-tetrazolyl)-penam]: the minimum inhibitory concentration (MIC) stood at 0.1 µg/mL (≈ 0.24 µM).
As to `CC1(C)S[C@@H]2[C@H](NC(=O)[C@H](NC(=O)NC(=N)N)c3ccccc3)C(=O)N2[C@H]1c1nnn[nH]1` [D-2-(3-guanylureido)-2-phenylacetyl, 6-(D-2-[3-Guanylureido]-2-phenylacetamido)-2,2-dimethyl-3-(5-tetrazolyl)penam], the MIC was below 0.1 µg/mL.
Consider `CC1(C)S[C@@H]2[C@H](NC(=O)[C@H](NC(=O)CCNC(=N)c3ccncc3)c3ccccc3)C(=O)N2[C@H]1c1nnn[nH]1`, for which the MIC was below 0.1 µg/mL.
Take `CNC(=N)NC(=O)NCC(=O)N[C@@H](C(=O)N[C@@H]1C(=O)N2[C@@H]1SC(C)(C)[C@@H]2c1nn[nH]n1)c1ccccc1`: the MIC was below 0.1 µg/mL.
As for `CC1(C)S[C@@H]2[C@H](NC(=O)Cc3sccc3CN)C(=O)N2[C@H]1c1nnn[nH]1` [2-(3-aminomethyl-2-thienyl)-acetyl, 6-(2-[3-Aminomethyl-2-thienyl]acetamido)-2,2-dimethyl-3-(5-tetrazolyl)penam], the MIC was at most 0.1 µg/mL.
Still for that read-out and setting: the same measure for `CC(=O)NC(=O)N[C@@H](C(=O)N[C@@H]1C(=O)N2[C@@H]1SC(C)(C)[C@@H]2c1nn[nH]n1)c1ccccc1` [2-(3-acetylureido)-2-phenylacetyl]: below 0.1 µg/mL; for `CC1(C)S[C@@H]2[C@H](NC(=O)[C@H](NC(=O)CNC(=N)c3ccncc3)c3ccccc3)C(=O)N2[C@H]1c1nnn[nH]1` [6-(D-2-[2-(4-pyridinecarboxamidino)acetamido]-2-phenylacetamido)-2,2-dimethyl-3-(5-tetrazolyl)penam]: below 0.1 µg/mL; for `CC1(C)S[C@@H]2[C@H](NC(=O)[C@H](NC(=O)CCNC(=O)c3ccccc3)c3ccccc3)C(=O)N2[C@H]1c1nnn[nH]1`: below 0.1 µg/mL.
On to `CC1(C)S[C@@H]2[C@H](NC(=O)[C@H](NC(=O)CCC(=N)N)c3ccccc3)C(=O)N2[C@H]1c1nn[nH]n1`, for which the MIC was below 0.1 µg/mL.

Still in this test, the particulars now being: Streptococcus pyogenes; Table II; two-fold serial dilution, Brain-Heart Infusion broth, overnight; read-out: MIC vs. Strep. pyogenes.
Regarding `CC1(C)S[C@@H]2[C@H](NC(=O)[C@H](N)c3ccc(N)cc3)C(=O)N2[C@H]1c1nnn[nH]1` [D-2-amino-(4-aminophenyl)acetyl, 6-(D-2-Amino-2-[4-aminophenyl]acetamido)-2,2-dimethyl-3-(5-tetrazolyl)penam], the MIC worked out at 0.39 µg/mL (≈ 1 µM).
Same read-out and setting: the same measure for `CC1(C)S[C@@H]2[C@H](NC(=O)[C@H](NC(=O)c3ccncc3)c3ccccc3)C(=O)N2[C@H]1c1nnn[nH]1`: 3.12 µg/mL (≈ 6.52 µM); for `CC1(C)S[C@@H]2[C@H](NC(=O)[C@H](NC(=O)Cc3ccc(NC(=N)N)cc3)c3ccccc3)C(=O)N2[C@H]1c1nn[nH]n1`: 1.56 µg/mL (≈ 2.84 µM).
Consider `CC1(C)S[C@@H]2[C@H](NC(=O)[C@H](NC(=O)CNC(=N)c3nc4ccccc4o3)c3ccccc3)C(=O)N2[C@H]1c1nnn[nH]1`, for which the minimal inhibitory concentration (MIC) was 0.39 µg/mL (≈ 0.679 µM).
Turning to `COc1ccc(S(=O)(=O)N[C@@H](C(=O)N[C@@H]2C(=O)N3[C@@H]2SC(C)(C)[C@@H]3c2nn[nH]n2)c2ccccc2)cc1`, the MIC was determined as 0.2 µg/mL (≈ 0.368 µM).
Take `CCOC(=O)N[C@@H](C(=O)N[C@@H]1C(=O)N2[C@@H]1SC(C)(C)[C@@H]2c1nnn[nH]1)c1ccccc1` [D-2-(ethoxycarbonylamino)-2-phenylacetyl]: the MIC amounted to 6.25 µg/mL (≈ 14 µM).
Still for that read-out and setting: the same measure for `CC1(C)S[C@@H]2[C@H](NC(=O)[C@H](NS(=O)(=O)O)c3ccccc3)C(=O)N2[C@H]1c1nnn[nH]1` [D-2-sulfoamino-2-phenylacetyl, 6-(D-2-sulfoamino-2-phenylacetamido)-2,2-dimethyl-3-(5-tetrazolyl)penam]: 12.5 µg/mL (≈ 27.6 µM); for `CCCCN=C(NCCCC)SCC(=O)N[C@@H](C(=O)N[C@@H]1C(=O)N2[C@@H]1SC(C)(C)[C@@H]2c1nn[nH]n1)c1ccccc1`: 0.004 µg/mL (≈ 0.00665 µM); for `CCS(=O)(=O)N[C@@H](C(=O)N[C@@H]1C(=O)N2[C@@H]1SC(C)(C)[C@@H]2c1nn[nH]n1)c1ccccc1` [D-2-(ethanesulfonamido)-2-phenylacetyl]: 0.39 µg/mL (≈ 0.838 µM).
Turning to `CC1(C)S[C@@H]2[C@H](NC(=O)[C@H](NC(=O)C(=O)Oc3ccccc3)c3ccccc3)C(=O)N2[C@H]1c1nnn[nH]1`, the MIC is 25 µg/mL (≈ 47.9 µM).
Take `CC1(C)S[C@@H]2[C@H](NC(=O)[C@H](NC(=O)COc3ccccc3)c3ccccc3)C(=O)N2[C@H]1c1nnn[nH]1` [D-2-(2-phenoxyacetamido)-2-phenylacetyl]: the MIC is 0.004 µg/mL (≈ 0.00788 µM).
The same measure, in the same setting: the same measure for `CCN=C(NCC)SCC(=O)N[C@@H](C(=O)N[C@@H]1C(=O)N2[C@@H]1SC(C)(C)[C@@H]2c1nn[nH]n1)c1ccccc1`: 0.004 µg/mL (≈ 0.00733 µM).

The same test, now with this note: Streptococcus pyogenes; Table IV; read-out: MIC vs. Strep. pyogenes.
As to `CN(C)C=N[C@@H]1C(=O)N2[C@@H]1SC(C)(C)[C@@H]2c1nnn[nH]1` [6-([Dimethylamino]methyleneamino)-2,2-dimethyl-3-(5-tetrazolyl)penam], the MIC stood at 12.5 µg/mL (≈ 42.3 µM).
As to `CC1(C)S[C@@H]2[C@H](N=CN3CCCCCC3)C(=O)N2[C@H]1c1nnn[nH]1` [6-([Hexahydro-1-azepinyl]methyleneamino)-2,2-dimethyl-3-(5-tetrazolyl)penam], the MIC came to 50 µg/mL (≈ 143 µM).
